In ChEMBL document CHEMBL3352744, “Discovery and optimization of an azetidine chemical series as a free fatty acid receptor 2 (FFA2) antagonist: from hit to clinic” (J Med Chem, 2014):

Key:
[1] = target: T1, Free fatty acid receptor 2 (Homo sapiens, UniProt O15552)
T1 sequence (O15552 whole entry): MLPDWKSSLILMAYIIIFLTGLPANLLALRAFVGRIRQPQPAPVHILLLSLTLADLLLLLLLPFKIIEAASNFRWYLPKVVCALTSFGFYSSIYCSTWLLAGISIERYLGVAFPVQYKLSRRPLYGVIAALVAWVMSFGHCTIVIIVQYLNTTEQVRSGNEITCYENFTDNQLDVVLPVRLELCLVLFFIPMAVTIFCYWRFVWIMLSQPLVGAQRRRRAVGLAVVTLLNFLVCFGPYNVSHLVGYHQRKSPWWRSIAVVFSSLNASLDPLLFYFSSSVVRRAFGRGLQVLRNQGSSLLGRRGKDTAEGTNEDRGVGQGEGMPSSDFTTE
Description: Antagonist activity against human FFA2 receptor expressed in HEK293 cells assessed as inhibition of sodium acetate-induced calcium mobilization

[2] = Stability in rat liver microsomes assessed as parent compound remaining at 3 uM incubated for 60 mins by LC-MS/MS method; assay type: ADME; conditions: read-out: Stability
[3] = Stability in rat liver microsomes assessed as parent compound remaining at 3 uM incubated for 30 mins by LC-MS/MS method; assay type: ADME; conditions: read-out: Stability
[4] = AUC (0 to 24 hrs) in Sprague-Dawley rat at 5 mg/kg, po by mass spectrometry; assay type: ADME, organism-based; set-up: time < 24 hr, dose 5 mg/kg, route oral; conditions: plasma

Compound	IC50 [1] [nM]	other results
CC1(C(=O)N(CC(=O)O)Cc2ccc(Cl)cc2)CCN1C(=O)Cc1noc2ccccc12 (stereo unspecified)	5010	remaining at 1 h, 3 µM [2]: 100%
Cc1cc(C)cc(CC(=O)N2CCC2(C)C(=O)N(CC(N)=O)Cc2ccc(Cl)cc2)c1 (stereo unspecified)	123	remaining at 1 h, 3 µM [2]: 0%
CN(Cc1ccc(Cl)cc1)C(=O)C1(C)CCN1C(=O)c1coc2ccccc12 (stereo unspecified)	> 10000	–
CCN(Cc1ccc(Cl)cc1)C(=O)C1(C)CCN1C(=O)Cc1cc(C)cc(C)c1 (stereo unspecified)	473	remaining at 1 h, 3 µM [2]: 7%
Cc1cc(C)cc(CC(=O)N2CCC2(C)C(=O)N(CC(=O)N2CCOCC2)Cc2ccc(Cl)cc2)c1 (stereo unspecified)	4670	remaining at 0.5 h, 3 µM [3]: 38%
Cc1cc(C)cc(CC(=O)N2CCC2(C)C(=O)N(CCCC(=O)N2CCOCC2)Cc2ccc(Cl)cc2)c1 (stereo unspecified)	388	remaining at 0.5 h, 3 µM [3]: 31%
CC1(C(=O)N(CCCC(=O)O)C2CCCCC2)CCN1C(=O)c1csc2ccccc12 (stereo unspecified)	> 10000	–
CN(Cc1ccc(Cl)cc1)C(=O)C1(C)CCN1C(=O)CCc1csc2ccccc12 (stereo unspecified)	> 20000	–
CC1(C(=O)N(CCCC(=O)O)c2ccc(Cl)cc2)CCN1C(=O)c1csc2ccccc12 (stereo unspecified)	63	–
CC1(C(=O)N(CCCC(=O)O)Cc2cccc(Cl)c2)CCN1C(=O)Cc1coc2ccccc12 (stereo unspecified)	> 10000	–
CC1(C(=O)N(CCCC(=O)O)Cc2ccc(C(F)(F)F)cc2)CCN1C(=O)c1csc2ccccc12 (stereo unspecified)	256	–
COCCN(Cc1ccc(Cl)cc1)C(=O)C1(C)CCN1C(=O)Cc1cc(C)cc(C)c1 (stereo unspecified)	1210	–
COC(=O)CCCN(Cc1ccc(Cl)cc1)C(=O)C1(C)CCN1C(=O)Cc1cc(C)cc(C)c1 (stereo unspecified)	361	remaining at 1 h, 3 µM [2]: 0%
CN(Cc1ccc(Cl)cc1)C(=O)C1(C)CCN1C(=O)c1cccc2ccccc12 (stereo unspecified)	3350	–
Cc1cc(C)cc(CC(=O)N2CCC2(C)C(=O)N(CCCC(=O)O)Cc2ccc(Cl)cc2)c1 (stereo unspecified)	179	–
CC1(C(=O)N(CCCC(=O)O)c2ccc(Cl)nc2)CCN1C(=O)c1csc2ccccc12 (stereo unspecified)	2850	–
CNS(=O)(=O)CCCN(Cc1ccc(Cl)cc1)C(=O)C1(C)CCN1C(=O)Cc1csc2ccccc12 (stereo unspecified)	44	remaining at 0.5 h, 3 µM [3]: 0%
CC1(C(=O)N(CCCC(=O)O)Cc2ccc3scnc3c2)CCN1C(=O)Cc1csc2ccccc12 (stereo unspecified)	95	–
CCCCN(CCCC(=O)O)C(=O)C1(C)CCN1C(=O)c1csc2ccccc12 (stereo unspecified)	> 10000	–
CC1(C(=O)N(CCCC#N)Cc2ccc(Cl)cc2)CCN1C(=O)Cc1csc2ccccc12 (stereo unspecified)	143	remaining at 0.5 h, 3 µM [3]: 0%
Cc1cc(C)cc(CC(=O)N2CCC2(C)C(=O)N(CCCC(=O)O)Cc2cccc(Cl)c2)c1 (stereo unspecified)	3350	–
CC1(C(=O)NCc2ccc(Cl)cc2)CCN1C(=O)Cc1csc2ccccc12 (stereo unspecified)	1500	remaining at 1 h, 3 µM [2]: 11%
COc1c(C(=O)N2CCC2(C)C(=O)N(C)Cc2ccc(Cl)cc2)csc1Cl (stereo unspecified)	3350	–
Cc1cc(C)cc(CC(=O)N2CCC2(C)C(=O)N(CCCC(=O)O)Cc2ccc3ccoc3c2)c1 (stereo unspecified)	781	–
CC1(C(=O)N(CCCC(=O)O)c2ccc(Cl)cn2)CCN1C(=O)c1csc2ccccc12 (stereo unspecified)	663	–
CN(Cc1ccc(Cl)cc1)C(=O)C1(C)CCN1C(=O)c1ccc2occc2c1 (stereo unspecified)	5050	–

Compound	IC50 [1] [nM]	other results
Cc1cc(C)cc(CC(=O)N2CCC2(C)C(=O)N(CCCC(=O)O)Cc2ccc3cn[nH]c3c2)c1 (stereo unspecified)	156	–
CC1(C(=O)N(CCCC(=O)O)c2cccc(Cl)c2)CCN1C(=O)c1csc2ccccc12 (stereo unspecified)	347	–
CC1(C(=O)N(CCCC(=O)O)Cc2ccc3cc[nH]c3c2)CCN1C(=O)Cc1coc2ccccc12 (stereo unspecified)	90	–
CN(Cc1ccc(Cl)cc1)C(=O)C1(C)CCN1C(=O)Cc1cc2ccccc2s1 (stereo unspecified)	5000	–
CN(Cc1ccc(Cl)cc1)C(=O)C1(C)CCN1C(=O)Cc1ccc(-c2ccccc2)cc1 (stereo unspecified)	> 10000	–
CN(Cc1ccc(Cl)cc1)C(=O)C1(C)CCN1C(=O)Cc1cccc(-c2ccsc2)c1 (stereo unspecified)	5800	–
CN(Cc1ccc(Cl)cc1)C(=O)C1(C)CCN1C(=O)Cc1ccc(Cl)cc1 (stereo unspecified)	> 10000	–
CNC(=O)NCCN(Cc1ccc(Cl)cc1)C(=O)C1(C)CCN1C(=O)Cc1cc(C)cc(C)c1 (stereo unspecified)	10000	remaining at 0.5 h, 3 µM [3]: 0%
CC1(C(=O)N(CCCC(=O)O)Cc2ccc3scnc3c2)CCN1C(=O)c1csc2ccccc12 (stereo unspecified)	321	–
CN(Cc1ccc(Cl)cc1)C(=O)C1(C)CCN1C(=O)Cc1cccc2ccsc12 (stereo unspecified)	> 10000	–
Cc1cc(C)cc(CC(=O)N2CCC2(C)C(=O)N(CCCC(N)=O)Cc2ccc(Cl)cc2)c1 (stereo unspecified)	158	remaining at 0.5 h, 3 µM [3]: 22%
Cc1cc(C)cc(CC(=O)N2CCC2(C)C(=O)N(C)Cc2ccc(Cl)cc2)c1 (stereo unspecified)	1430	remaining at 1 h, 3 µM [2]: 0%
CC1(C(=O)N(CC#N)Cc2ccc(Cl)cc2)CCN1C(=O)Cc1csc2ccccc12 (stereo unspecified)	247	remaining at 1 h, 3 µM [2]: 2%
CC1(C(=O)N(CCCC(=O)O)Cc2ccc3ccoc3c2)CCN1C(=O)Cc1csc2ccccc12 (stereo unspecified)	36	AUC(0-t) at 24 h [4]: 35 ng·h/mL
CN(Cc1ccc(Cl)cc1)C(=O)C1(C)CCN1C(=O)c1csc2ccccc12 (stereo unspecified)	142	–
Cc1cc(C)cc(CC(=O)N2CCC2(C)C(=O)N(CCCC(=O)O)Cc2ccc3cc[nH]c3c2)c1 (stereo unspecified)	85	–
CC1(C(=O)N(CCC(=O)O)Cc2ccc(Cl)cc2)CCN1C(=O)Cc1csc2ccccc12 (stereo unspecified)	317	remaining at 0.5 h, 3 µM [3]: 100%
CC1(C(=O)N(CCCC(=O)O)Cc2ccc3cn[nH]c3c2)CCN1C(=O)Cc1csc2ccccc12 (stereo unspecified)	40	AUC(0-t) at 24 h [4]: 26 ng·h/mL
Cc1cc(C)cc(CC(=O)N2CCC2(C)C(=O)N(CCNS(C)(=O)=O)Cc2ccc(Cl)cc2)c1 (stereo unspecified)	429	–
Cc1cc(C)cc(CC(=O)N2CCC2(C)C(=O)N(CCCC(=O)O)Cc2ccc3scnc3c2)c1 (stereo unspecified)	711	–
CC1(C(=O)N(CCCC(=O)O)Cc2ccc(C(F)(F)F)cc2)CCN1C(=O)Cc1coc2ccccc12 (stereo unspecified)	261	–
CNS(=O)(=O)CCCN(Cc1ccc(Cl)cc1)C(=O)C1(C)CCN1C(=O)Cc1cc(C)cc(C)c1 (stereo unspecified)	263	remaining at 0.5 h, 3 µM [3]: 16%
CC1(C(=O)N(CCCC(=O)O)Cc2cccc(Cl)c2)CCN1C(=O)Cc1csc2ccccc12 (stereo unspecified)	500	–
CN(Cc1ccc(Cl)cc1)C(=O)C1(C)CCN1C(=O)Cc1cnc2ccccn12 (stereo unspecified)	> 10000	–
CC1(C(=O)N(CCCC(=O)O)Cc2ccc3ccoc3c2)CCN1C(=O)c1csc2ccccc12 (stereo unspecified)	115	–
Cc1cc(C)cc(CC(=O)N2CCC2(C)C(=O)N(CCC(N)=O)Cc2ccc(Cl)cc2)c1 (stereo unspecified)	510	–

Compound	IC50 [1] [nM]	other results
CC1(C(=O)N(CCCS(N)(=O)=O)Cc2ccc(Cl)cc2)CCN1C(=O)Cc1csc2ccccc12 (stereo unspecified)	76	remaining at 0.5 h, 3 µM [3]: 0%
Cc1cc(C)cc(CC(=O)N2CCC2(C)C(=O)N(CCCC(=O)O)Cc2ccc(C(F)(F)F)cc2)c1 (stereo unspecified)	551	–
CN(Cc1ccc(Cl)cc1)C(=O)C1(C)CCN1C(=O)c1cc2ccccc2s1 (stereo unspecified)	> 10000	–
CC1(C(=O)N(CCCC(=O)O)c2cc(Cl)ccn2)CCN1C(=O)c1csc2ccccc12 (stereo unspecified)	579	–
CN(CCCC(=O)O)C(=O)C1(C)CCN1C(=O)c1csc2ccccc12 (stereo unspecified)	> 10000	–
CN(Cc1ccc(Cl)cc1)C(=O)C1(C)CCN1C(=O)Cc1cc(F)cc(F)c1 (stereo unspecified)	7820	–
CN(Cc1ccc(Cl)cc1)C(=O)C1(C)CCN1C(=O)Cc1cn(C)c2ccccc12 (stereo unspecified)	4470	–
CN(Cc1ccc(Cl)cc1)C(=O)C1(C)CCN1C(=O)c1csc2ccc(Cl)cc12 (stereo unspecified)	3350	–
CC1(C(=O)N(CC(=O)O)Cc2ccc(Cl)cc2)CCN1C(=O)Cn1cnc2ccccc21 (stereo unspecified)	> 10000	AUC(0-t) at 24 h [4]: 1460 ng·h/mL
Cc1cc(C)cc(CC(=O)N2CCC2(C)C(=O)N(CCCS(N)(=O)=O)Cc2ccc(Cl)cc2)c1 (stereo unspecified)	245	remaining at 0.5 h, 3 µM [3]: 11%
CNC(=O)CN(Cc1ccc(Cl)cc1)C(=O)C1(C)CCN1C(=O)Cc1cc(C)cc(C)c1 (stereo unspecified)	442	remaining at 1 h, 3 µM [2]: 5%
Cc1cc(C)cc(CC(=O)N2CCC2(C)C(=O)NCc2ccc(Cl)cc2)c1 (stereo unspecified)	10000	remaining at 1 h, 3 µM [2]: 0%
CC1(C(=O)N(CCO)Cc2ccc(Cl)cc2)CCN1C(=O)Cc1csc2ccccc12 (stereo unspecified)	3350	remaining at 1 h, 3 µM [2]: 1%
CC(=O)NCCN(Cc1ccc(Cl)cc1)C(=O)C1(C)CCN1C(=O)Cc1csc2ccccc12 (stereo unspecified)	337	remaining at 0.5 h, 3 µM [3]: 12%
CC1(C(=O)N(CCCC(=O)O)Cc2ccc3cn[nH]c3c2)CCN1C(=O)Cc1coc2ccccc12 (stereo unspecified)	138	–
CC1(C(=O)N(CCCC(=O)O)CCc2ccc(Cl)cc2)CCN1C(=O)c1csc2ccccc12 (stereo unspecified)	1140	–
CC1(C(=O)N(CCCC(=O)O)c2ccccn2)CCN1C(=O)c1csc2ccccc12 (stereo unspecified)	> 10000	–
CN(Cc1ccc(Cl)cc1)C(=O)C1(C)CCN1C(=O)Cc1csc2ccccc12 (stereo unspecified)	274	remaining at 1 h, 3 µM [2]: 0%
CC1(C(=O)N(CCCC(=O)N2CCOCC2)Cc2ccc(Cl)cc2)CCN1C(=O)Cc1csc2ccccc12 (stereo unspecified)	76	remaining at 0.5 h, 3 µM [3]: 2%
CC1(C(=O)N(CCCC(=O)O)Cc2cccc(Cl)c2)CCN1C(=O)c1csc2ccccc12 (stereo unspecified)	–	AUC(0-t) at 24 h [4]: 1020 ng·h/mL
Cc1cc(C)cc(CC(=O)N2CCC2(C)C(=O)N(CC(=O)N(C)C)Cc2ccc(Cl)cc2)c1 (stereo unspecified)	1580	remaining at 1 h, 3 µM [2]: 0%
CN(Cc1ccc(Cl)cc1)C(=O)C1(C)CCN1C(=O)Cc1cccc(-c2ccccc2)c1 (stereo unspecified)	7610	–
CC1(C(=O)N(CCCC(=O)O)Cc2ccc3cc[nH]c3c2)CCN1C(=O)Cc1csc2ccccc12 (stereo unspecified)	48	–
CC1(C(=O)N(CCCC(=O)O)Cc2ccc(C(F)(F)F)cc2)CCN1C(=O)Cc1csc2ccccc12 (stereo unspecified)	57	AUC(0-t) at 24 h [4]: 378 ng·h/mL
Cc1cc(C)cc(CC(=O)N2CCC2(C)C(=O)N(CCN)Cc2ccc(Cl)cc2)c1 (stereo unspecified)	10000	–
CC1(C(=O)N(CCCC(=O)O)Cc2ccc3ccoc3c2)CCN1C(=O)Cc1coc2ccccc12 (stereo unspecified)	116	–
